What all share (assay): relative viability (nuclei count vs DMSO), 5 days (fraction); higher = more cells survive
Compound in the test “BAM7 + Linsitinib”: CCOC1=CC=CC=C1N=NC2=C(NN(C2=O)C3=NC(=CS3)C4=CC=CC=C4)C [BAM7] + C[C@]1(O)C[C@@H](c2nc(-c3ccc4ccc(-c5ccccc5)nc4c3)c3c(N)nccn32)C1 [Linsitinib] (partner 1 µM)
The method in brief:
(§1)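 Relative viability divides the nuclei count in treated wells by that in vehicle wells. Lung cancer cell lines were seeded in 1536-well plates, dosed by pin tool the next day, and fixed and stained after 5 days in one step with final 0.05% Triton X-100, 1% formaldehyde and 1 ug/ml Hoechst. Dosing was a single drug or a fixed anchor-drug dose plus five library-drug doses (not always all listed) in √10 steps, and values are medians of duplicate plates imaged at 4×.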

Compound in the test “BAM7 + Pemetrexed”: CCOC1=CC=CC=C1N=NC2=C(NN(C2=O)C3=NC(=CS3)C4=CC=CC=C4)C [BAM7] + Nc1nc2[nH]cc(CCc3ccc(C(=O)N[C@@H](CCC(=O)O)C(=O)O)cc3)c2c(=O)[nH]1 [Pemetrexed] (partner 0.2 µM)
The essentials: as §1

Compound in test [1]: CCn1c(-c2nonc2N)nc2c(C#CC(C)(C)O)ncc(OC[C@H]3CCCNC3)c21 + CS(=O)(=O)CCNCc1ccc(-c2ccc3ncnc(Nc4ccc(OCc5cccc(F)c5)c(Cl)c4)c3c2)o1 [Lapatinib] (partner 2 µM)
The essentials:
as §1

Compound in the test “BAM7 + Dasatinib”: CCOC1=CC=CC=C1N=NC2=C(NN(C2=O)C3=NC(=CS3)C4=CC=CC=C4)C [BAM7] + Cc1nc(Nc2ncc(C(=O)Nc3c(C)cccc3Cl)s2)cc(N2CCN(CCO)CC2)n1 [Dasatinib] (partner 0.075 µM)
The method in brief:
as §1

Regarding HCC-44, the relative viability amounted to 0.717 in the test with BAM7 + Linsitinib (first compound 0.5 µM); 0.67 in the test with BAM7 + Linsitinib (first compound 5 µM); 0.62 with BAM7 + Linsitinib (first compound 15.81 µM); 0.689 with BAM7 + Linsitinib (first compound 50 µM); 0.648 with BAM7 + Pemetrexed (first compound 0.5 µM); 0.642 with BAM7 + Pemetrexed (first compound 5 µM). The relative viability was 0.635 with BAM7 + Pemetrexed (first compound 15.81 µM); 0.63 with BAM7 + Pemetrexed (first compound 50 µM); 0.93 in test [1] (first compound 0.01 µM); 0.975 in test [1] (first compound 0.03162 µM); 1.01 in test [1] (first compound 0.1 µM); 0.989 in test [1] (first compound 0.3162 µM). In addition, the relative viability in test [1] (first compound 1 µM) is 1.09.

NCI-H1299: the relative viability was found to be 1.02 with BAM7 + Linsitinib (first compound 0.5 µM); 1.14 in the test with BAM7 + Linsitinib (first compound 5 µM); 1.02 in the test with BAM7 + Linsitinib (first compound 15.81 µM); 0.936 with BAM7 + Linsitinib (first compound 50 µM); 0.927 in test [1] (first compound 0.01 µM); 0.967 in test [1] (first compound 0.03162 µM). Moreover, the relative viability in test [1] (first compound 0.1 µM) amounted to 0.998; in test [1] (first compound 0.3162 µM), 0.947; in test [1] (first compound 1 µM) it was 0.982.

Turning to NCI-H727, the relative viability with BAM7 + Linsitinib (first compound 0.5 µM) was 0.273; with BAM7 + Linsitinib (first compound 5 µM) it was 0.416; with BAM7 + Linsitinib (first compound 15.81 µM), 0.314; in the test with BAM7 + Linsitinib (first compound 50 µM) it was 0.245; with BAM7 + Dasatinib (first compound 0.5 µM) it was 0.351; with BAM7 + Dasatinib (first compound 15.81 µM) it was 0.469. Further, the relative viability is 0.312 with BAM7 + Dasatinib (first compound 50 µM); 0.796 in test [1] (first compound 0.01 µM); 0.856 in test [1] (first compound 0.03162 µM); 0.593 in test [1] (first compound 0.1 µM); 0.762 in test [1] (first compound 0.3162 µM); 0.66 in test [1] (first compound 1 µM).

Take LCLC-103H: the relative viability stood at 1.06 with BAM7 + Linsitinib (first compound 0.5 µM); 1.22 in the test with BAM7 + Linsitinib (first compound 5 µM); 1.15 with BAM7 + Linsitinib (first compound 15.81 µM); 0.933 with BAM7 + Linsitinib (first compound 50 µM); 0.46 in the test with BAM7 + Dasatinib (first compound 0.5 µM); 0.512 with BAM7 + Dasatinib (first compound 5 µM). Besides, the relative viability with BAM7 + Dasatinib (first compound 15.81 µM) was found to be 0.523; with BAM7 + Dasatinib (first compound 50 µM), 0.523; with BAM7 + Pemetrexed (first compound 0.5 µM), 0.524; with BAM7 + Pemetrexed (first compound 5 µM), 0.491; in the test with BAM7 + Pemetrexed (first compound 15.81 µM) it was 0.487; with BAM7 + Pemetrexed (first compound 50 µM), 0.444.

Regarding ABC-1, the relative viability turned out to be 0.883 with BAM7 + Linsitinib (first compound 0.5 µM); 1.18 in the test with BAM7 + Linsitinib (first compound 5 µM); 0.815 with BAM7 + Linsitinib (first compound 15.81 µM); 0.758 in the test with BAM7 + Linsitinib (first compound 50 µM); 0.675 with BAM7 + Dasatinib (first compound 0.5 µM); 0.624 with BAM7 + Dasatinib (first compound 5 µM). Moreover, the relative viability with BAM7 + Dasatinib (first compound 15.81 µM) was 0.496; with BAM7 + Dasatinib (first compound 50 µM), 0.61; in test [1] (first compound 0.01 µM), 1.28; in test [1] (first compound 0.03162 µM) it was 1.26; in test [1] (first compound 0.1 µM), 1; in test [1] (first compound 0.3162 µM), 1.13. In addition, in test [1] (first compound 1 µM), the relative viability came out at 1.15.

On to NCI-H1650, for which the relative viability is 0.338 in the test with BAM7 + Dasatinib (first compound 0.5 µM); 0.278 with BAM7 + Dasatinib (first compound 5 µM); 0.277 in the test with BAM7 + Dasatinib (first compound 15.81 µM); 0.337 with BAM7 + Dasatinib (first compound 50 µM); 0.336 with BAM7 + Pemetrexed (first compound 0.5 µM); 0.399 with BAM7 + Pemetrexed (first compound 5 µM). In addition, the relative viability with BAM7 + Pemetrexed (first compound 15.81 µM) amounted to 0.399; with BAM7 + Pemetrexed (first compound 50 µM), 0.354; in test [1] (first compound 0.01 µM) it was 0.758; in test [1] (first compound 0.03162 µM), 0.864; in test [1] (first compound 0.1 µM), 0.708; in test [1] (first compound 0.3162 µM), 0.725. Further, the relative viability in test [1] (first compound 1 µM) was 0.578.

In the case of ChaGo-K-1, the relative viability in the test with BAM7 + Dasatinib (first compound 0.5 µM) is 0.641; with BAM7 + Dasatinib (first compound 5 µM), 0.523; with BAM7 + Dasatinib (first compound 15.81 µM), 0.507; in the test with BAM7 + Dasatinib (first compound 50 µM), 0.726; with BAM7 + Pemetrexed (first compound 0.5 µM), 0.256; with BAM7 + Pemetrexed (first compound 5 µM) it was 0.257. Moreover, the values for the relative viability in the test with BAM7 + Pemetrexed (first compound 15.81 µM) and with BAM7 + Pemetrexed (first compound 50 µM) were 0.249 and 0.272, respectively.

On to NCI-H1648, for which the relative viability with BAM7 + Pemetrexed (first compound 0.5 µM) came to 0.874; with BAM7 + Pemetrexed (first compound 5 µM), 0.88; with BAM7 + Pemetrexed (first compound 15.81 µM), 0.677; with BAM7 + Pemetrexed (first compound 50 µM), 1.03.

On to A549, for which the relative viability in the test with BAM7 + Linsitinib (first compound 0.5 µM) came out at 0.658; with BAM7 + Linsitinib (first compound 5 µM), 0.617; in the test with BAM7 + Linsitinib (first compound 15.81 µM), 0.57; with BAM7 + Linsitinib (first compound 50 µM), 0.559; in test [1] (first compound 0.01 µM), 0.93; in test [1] (first compound 0.03162 µM), 0.99. Also, the relative viability came to 1.01 in test [1] (first compound 0.1 µM), 0.842 in test [1] (first compound 0.3162 µM) and 0.781 in test [1] (first compound 1 µM).

For NCI-H522, the relative viability in the test with BAM7 + Dasatinib (first compound 0.5 µM) worked out at 0.872; with BAM7 + Dasatinib (first compound 5 µM) it was 0.976; in the test with BAM7 + Dasatinib (first compound 15.81 µM), 0.828; with BAM7 + Dasatinib (first compound 50 µM), 0.827; with BAM7 + Pemetrexed (first compound 0.5 µM) it was 1.13; with BAM7 + Pemetrexed (first compound 5 µM), 1.09. The relative viability in the test with BAM7 + Pemetrexed (first compound 15.81 µM) is 1.25; in the test with BAM7 + Pemetrexed (first compound 50 µM) it was 0.998.

In the case of NCI-H2170, the relative viability in the test with BAM7 + Dasatinib (first compound 0.5 µM) was determined as 0.644; in the test with BAM7 + Dasatinib (first compound 5 µM), 0.683; with BAM7 + Dasatinib (first compound 15.81 µM), 0.731; in the test with BAM7 + Dasatinib (first compound 50 µM) it was 0.777; with BAM7 + Pemetrexed (first compound 0.5 µM), 0.252; in the test with BAM7 + Pemetrexed (first compound 5 µM), 0.281. In addition, the relative viability with BAM7 + Pemetrexed (first compound 15.81 µM) turned out to be 0.251; in the test with BAM7 + Pemetrexed (first compound 50 µM), 0.269; in test [1] (first compound 0.01 µM), 0.283; in test [1] (first compound 0.03162 µM) it was 0.254; in test [1] (first compound 0.1 µM), 0.266; in test [1] (first compound 0.3162 µM) it was 0.261. Moreover, the relative viability in test [1] (first compound 1 µM) is 0.302.

As to NCI-H1623, the relative viability stood at 0.576 with BAM7 + Dasatinib (first compound 0.5 µM), 0.56 in the test with BAM7 + Dasatinib (first compound 5 µM), 0.573 with BAM7 + Dasatinib (first compound 15.81 µM) and 0.641 with BAM7 + Dasatinib (first compound 50 µM).

For the cell line SW 900, the relative viability with BAM7 + Dasatinib (first compound 0.5 µM) came out at 0.358; in the test with BAM7 + Dasatinib (first compound 5 µM), 0.398; with BAM7 + Dasatinib (first compound 15.81 µM), 0.711; with BAM7 + Dasatinib (first compound 50 µM) it was 0.656; with BAM7 + Pemetrexed (first compound 5 µM), 0.44; in the test with BAM7 + Pemetrexed (first compound 50 µM), 0.505.

In the case of IA-LM, the relative viability with BAM7 + Linsitinib (first compound 0.5 µM) was 0.755; with BAM7 + Linsitinib (first compound 5 µM), 0.705; in the test with BAM7 + Linsitinib (first compound 15.81 µM), 0.545; in the test with BAM7 + Linsitinib (first compound 50 µM) it was 0.672; in test [1] (first compound 0.01 µM), 0.713; in test [1] (first compound 0.03162 µM) it was 0.922. In addition, the relative viability turned out to be 0.887 in test [1] (first compound 0.1 µM), 0.532 in test [1] (first compound 0.3162 µM) and 0.289 in test [1] (first compound 1 µM).

Regarding EBC-1, the relative viability in the test with BAM7 + Linsitinib (first compound 0.5 µM) was 0.856; with BAM7 + Linsitinib (first compound 5 µM), 1.07; in the test with BAM7 + Linsitinib (first compound 15.81 µM), 0.876; in the test with BAM7 + Linsitinib (first compound 50 µM) it was 0.85; in test [1] (first compound 0.01 µM) it was 0.219; in test [1] (first compound 0.03162 µM), 0.197. Besides, the relative viability amounted to 0.213 in test [1] (first compound 0.1 µM), 0.236 in test [1] (first compound 0.3162 µM) and 0.227 in test [1] (first compound 1 µM).

For the origin of these results see the supplement of paper PMC10307832.
